Read-outs that look alike come from different tables or passages of the source.
Tested on: PfAtg8 WT
Assay type: binding, P. falciparum
Settings: for WTRU/NOISE (response divided by overall noise, WT): pH 8
[1] = ratio of WT to K19E/K47E normalized response, hit threshold at least 1.5

| Structure (SMILES) | WTRU/NOISE (response divided by overall noise, WT) | (WTRU/NOISE)/(MutRU/NOISE) [1] | (WTRU/NOISE)/(MutRU/NOISE) |
| --- | --- | --- | --- |
| Oc1ccc(O)c(O)c1 [Fragment 408, 1,2,4-benzenetriol] | 5.33 | 3.56 | – |
| O=C1CC(=O)c2ccccc21 [Fragment 792, 1,3-indandione] | 2.38 | 2.15 | – |
| O=[N+]([O-])c1ccc(O)c(O)c1 [Fragment 537, 4-nitrocatechol] | 2.39 | 1.90 | – |
| O=c1ccc2cc(O)c(O)cc2o1 [Fragment 268, 6,7-dihydroxycoumarin] | 1.79 | – | 3.73 |
| Oc1cccc(O)c1O [Fragment 410, 1,2,3-benzenetriol] | 22.79 | 6.19 | – |
| O=[N+]([O-])c1ccc(Cl)c2nonc12 [Fragment 470, 4-chloro-7-nitrobenzofurazan] | – | 1.52 | – |

— PMC3496014 (Journal of structural biology, 2012)
